Consider four compounds from patent publication US7572949B2, “SKN-1 and GSK-3 genes and proteins” (Immune Disease Institute, Inc., priority 2003, dated 2009).

Assay [1] deals with SKN-1::GFP. Kind of assay: Accumulation of SKN-1::GFP in intestinal nuclei in response to oxidative stress (skn-1::gfp transgenic worms). Type of assay: in vivo, C. elegans. As to the method:
To create transgenic skn-1::gfp strains, 2.5, 10, or 50 ng/μl of transgene DNA (FIG. 5A) was injected into N2 animals at along with 100 ng/μl of pRF4 to generate extrachromosomal transgenic lines. Two different extrachromosomal arrays, Ex001 and Ex007, generated with 2.5 and 10 ng/μl of SKN-1::GFP, respectively, were integrated into the chromosome by UV irradiation (400 J/m2) to produce the insertion strains Is001 and Is007, respectively. To rescue the embryonic lethality of a skn-1 mutation, SKN-1::GFP was injected into skn-1(zu67)/DnT1 animals at 2.5 ng/μl with 100 ng/μl of the pRF4 marker. […] To analyze expression and localization of SKN-1::GFP in response to oxidative stress, skn-1::gfp transgenic worms were treated as described above for the gcs-1::gfp expression studies. […] These worms were scored for presence of SKN-1::GFP in intestinal nuclei 5 minutes later. […] To discriminate intestinal autofluorescence from SKN-1::GPP epifluorescence, a triple band emission filter set (Chroma 61000) was used in conjunction with a narrow band excitation filter (484/14 nm). This combination allowed autofluorescence to be detected as yellow/orange fluorescence deriving from a combined green and red signal, while GFP remained green. Worms that carried skn-1::gfp, gcs-1::gfp and gcs-1::gfp mutant transgenes were incubated with 50 μg/ml DiI (Molecular Probes) in M9 for 3 hours at 20° C., then transferred to fresh plates for 1 hour to destain, and examined under the fluorescence microscope. The ASI chemosensory neurons were identified by according to their intensity of DiI labeling and location relative to other DiI-labeled cells.

Assay [2] has as its system C. elegans pathway mediated by SKN-1. To be noted: in vivo.
The test system of assay [3] is GCS-1::GFP expression in the intestine. Kind of assay: Induction of GCS-1::GFP expression in the intestine by oxidative stress (transgenic worms, fluorescence microscopy). To be noted: for percentage of animals with high intestinal GCS-1::GFP expression / percentage of animals with low intestinal GCS-1::GFP expression / percentage of animals with medium intestinal GCS-1::GFP expression: 1 mM paraquat in the agar, 20° C., 3 days, mixed L2-young adult worms. Type of assay: in vivo, C. elegans. On the procedure: Transgenic strains were generated by injecting DNA into the gonad of young adult animals as described in Mello et al. (EMBO Journal 10: 3959-3970 (1991)). gcs-1::gfp transgene constructs (FIG. 3A) were injected at 50 ng/μl along with the rol-6 marker (pRF4) at 100 ng/μl. Between three and six independent extrachromosomal lines were generated and analyzed for each gcs-1::gfp construct. To investigate GCS-1::GFP expression in the skn-1(zu67) background, rol-6-marked gcs-1::gfp hermaphrodites were mated with N2 males, then their transgenic progeny were crossed with skn-1(zu67)/DnT1 hermaphrodites, which have an unc phenotype. After transgenic males were successively crossed twice with skn-1(zu67)/DnT1 hermaphrodites, unc; rol F3 hermaphrodite progeny were selected. From this population, skn-1(zu67)/DnT1; gcs-1::gfp animals were identified on the basis of their non-unc; rol progeny laying dead eggs. Two different gcs-1:gfp lines were thereby crossed into the skn-1(zu67) background and examined for GFP expression. DIC and fluorescence images were acquired with a Zeiss AxioSKOP2 microscope and AxioCam cooled color digital camera.
To investigate expression of gcs-1::gfp and mutant transgenes, worms were exposed to oxidative stress under the following conditions. For heat shock, worms cultured at 20° C. were transferred onto prewarmed seeded plates and incubated at 29° C. for 20 hours, then examined by fluorescence microscopy for GFP expression. gcs-1::gfp induction was also observed in an alternative heat treatment protocol, during which worms cultured at 20° C. were transferred onto prewarmed plates and incubated at 34° C. for 2 to 4 hours, then returned to 20° C. and examined for GFP expression hourly during a four hour recovery period. In the experiments described in Table 2, young adults were transferred to plates that contained 1 mM paraquat in the agar and maintained at 20° C. for 3 days prior to analysis. In an alternative induction protocol, worms that carried gcs-1::gfp or the mutant transgenes shown in FIG. 3A were incubated in M9 either with or without 100 mM paraquat for 30 minutes, then allowed to recover on plates for four hours.

[4] abbreviates: 2 mM, immobilization for photography, during the times examined (data not shown).
Setting [5] is: paraquat, treated as for the gcs-1::gfp studies, mixed-stage L2-young adult worms.

For the compound `[N-]=[N+]=[N-]` [Sodium Azide, sodium azide], in assay [1] (in vivo), the “percentage of animals with high SKN-1::GFP in intestinal nuclei” value worked out at 55.0%, the “percentage of animals with low SKN-1::GFP in intestinal nuclei” value is 0.8% and the “percentage of animals with medium SKN-1::GFP in intestinal nuclei” value worked out at 44.2%.

Regarding `C[S+]([O-])CCCCN=C=S` (stereo not shown) [sulforaphane], the “response of the SKN-1-mediated pathway” value in assay [2] is given as “responds”.

As to `c1ccc([C@H]2CN3CCSC3=N2)cc1` [Levamisole], the “SKN-1::GFP relocalization by immobilization agent” value in assay [1] (setting [4]) was “did not stimulate”. The “GCS-1::GFP induction by immobilization agent” value in assay [3] (setting [4]) is given as “did not stimulate”.

Regarding `C[n+]1ccc(-c2cc[n+](C)cc2)cc1` [Paraquat, paraquat (methyl viologen)], in assay [1] (ASI neurons, after exposure to paraquat), the “SKN-1::GFP in the ASI neurons after exposure” value is on record as “neither the location nor intensity of SKN-1::GFP was detectably altered”. In assay [1] (in a high percentage of animals, particularly anteriorly and posteriorly, after exposure to paraquat), the “SKN-1::GFP in intestinal cell nuclei after exposure” value is “elevated levels of SKN-1::GFP”. For the same compound, in assay [1] (setting [5]), the “percentage of animals with high SKN-1::GFP in intestinal nuclei” value is reported as 3.1%, the “percentage of animals with low SKN-1::GFP in intestinal nuclei” value is listed as 53.1% and the “percentage of animals with medium SKN-1::GFP in intestinal nuclei” value stood at 43.8%. Also, in assay [3] (100 mM paraquat in M9 for 30 minutes, four hours recovery on plates), the “intestinal gcs-1::gfp expression, alternative induction protocol” value is listed as “induction of intestinal gcs-1::gfp expression”. Besides, in assay [3] (gcs-1::gfp transgene), the “percentage of animals with high intestinal GCS-1::GFP expression” value amounted to 18.4%, the “percentage of animals with low intestinal GCS-1::GFP expression” value was 14.5% and the “percentage of animals with medium intestinal GCS-1::GFP expression” value was 67.1%. In assay [3] (gcsΔ2::gfp transgene), the “percentage of animals with high intestinal GCS-1::GFP expression” value stood at 13.1%, the “percentage of animals with low intestinal GCS-1::GFP expression” value is on record as 21.3% and the “percentage of animals with medium intestinal GCS-1::GFP expression” value amounted to 65.6%. Besides, the “GCS-1::GFP in the intestine and ASI neurons of skn-1 homozygotes” value in assay [3] (skn-1 homozygotes, after paraquat treatment (data not shown)) was “absence of GCS-1::GFP”.
